Data as given in patent publication US20260183432A1, “IMAGING AGENTS FOR DETECTING CD206+ MACROPHAGES” (THE GENERAL HOSPITAL CORPORATION, priority 2022, published 2026).
Entries after “also recorded” stand apart in the source; their conditions may differ. Like-named read-outs stand apart in the source and are kept apart here.

Columns and labels:
CD206 = target: T1, CD206 (Homo sapiens, UniProt P22897); conditions: read-out: binding affinity to CD206 (IC50); cited from earlier work
T1 sequence (P22897 19-1456): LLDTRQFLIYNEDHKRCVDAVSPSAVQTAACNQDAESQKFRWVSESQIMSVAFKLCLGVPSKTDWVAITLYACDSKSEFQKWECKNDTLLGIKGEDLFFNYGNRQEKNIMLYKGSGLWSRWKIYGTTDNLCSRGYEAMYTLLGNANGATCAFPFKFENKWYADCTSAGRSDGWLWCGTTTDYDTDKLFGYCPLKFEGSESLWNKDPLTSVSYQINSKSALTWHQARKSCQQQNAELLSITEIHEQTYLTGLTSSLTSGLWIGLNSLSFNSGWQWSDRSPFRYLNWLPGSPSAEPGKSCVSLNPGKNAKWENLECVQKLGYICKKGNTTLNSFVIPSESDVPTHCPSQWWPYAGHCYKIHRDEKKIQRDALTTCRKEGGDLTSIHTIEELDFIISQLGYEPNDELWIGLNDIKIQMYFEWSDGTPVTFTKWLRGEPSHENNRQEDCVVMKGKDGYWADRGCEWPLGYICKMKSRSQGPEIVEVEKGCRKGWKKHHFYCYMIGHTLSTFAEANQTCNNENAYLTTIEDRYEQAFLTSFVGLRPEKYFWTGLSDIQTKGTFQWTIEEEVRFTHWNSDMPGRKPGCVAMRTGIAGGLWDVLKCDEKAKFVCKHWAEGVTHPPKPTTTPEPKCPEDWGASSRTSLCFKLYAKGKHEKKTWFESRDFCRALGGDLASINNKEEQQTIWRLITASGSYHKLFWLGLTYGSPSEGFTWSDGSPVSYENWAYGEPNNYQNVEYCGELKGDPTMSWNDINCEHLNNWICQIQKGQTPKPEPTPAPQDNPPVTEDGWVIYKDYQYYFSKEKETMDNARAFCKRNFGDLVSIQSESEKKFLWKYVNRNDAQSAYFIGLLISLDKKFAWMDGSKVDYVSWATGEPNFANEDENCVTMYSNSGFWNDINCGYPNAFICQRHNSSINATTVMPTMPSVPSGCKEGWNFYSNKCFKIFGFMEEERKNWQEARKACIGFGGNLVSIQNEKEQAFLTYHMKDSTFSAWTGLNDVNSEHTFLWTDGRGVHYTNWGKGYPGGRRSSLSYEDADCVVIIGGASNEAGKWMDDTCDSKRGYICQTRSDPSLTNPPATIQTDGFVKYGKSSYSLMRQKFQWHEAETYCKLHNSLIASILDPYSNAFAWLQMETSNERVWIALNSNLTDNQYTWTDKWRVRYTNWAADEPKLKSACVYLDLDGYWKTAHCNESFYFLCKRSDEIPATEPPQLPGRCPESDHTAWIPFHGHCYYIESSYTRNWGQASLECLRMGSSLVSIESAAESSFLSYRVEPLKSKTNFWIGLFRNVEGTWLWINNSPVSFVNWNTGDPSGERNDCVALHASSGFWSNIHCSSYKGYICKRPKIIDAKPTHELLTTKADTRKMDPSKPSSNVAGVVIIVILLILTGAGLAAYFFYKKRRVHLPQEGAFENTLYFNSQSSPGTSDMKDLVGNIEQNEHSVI

CD206+ macrophages [1] = test: MR imaging in mouse model of cutaneous wound healing; assay type: in vivo
Method: Eight-to nine-week-old C57BL/6J female mice were used for MRI of wound healing and glioma (Jackson Laboratory, ME). The generation of wound healing and glioma is described in Examples 14 and 15, respectively. The mice with subcutaneous wounds were imaged on days 1, 4, and 7 longitudinally or on day 7. Mice with glioma were imaged on the third week. All the mice were imaged pre- and at 0, 15, 30, 45 and 60 min after 0.3 mmol/kg of Mann2-DTPA-Gd or MannGdFish was administered intravenously via a tail vein using serial T1 rapid acquisition with relaxation enhancement (RARE) sequence (TR: 935.77 ms, TE: 13.59 ms, averages: 12, rare factor: 4, 256×256×48 matrix size, 0.156×0.156×1 mm^3 voxel size) with chemical fat suppression using a Hermitian pulse shape with an 8.253 ms pulse and 701.19 Hz bandwidth 3.5 ppm down from the water peak and respiratory gating on a 4.7 T small animal MR scanner (Bruker, Cambridge, MA) with a 3 cm quadrature volume coil (Rapid MR International, Germany). Regions of interest (ROIs) were drawn and the contrast-to-noise ratios (CNRs, CNRpre-contrast subtracted) were calculated by a radiologist with over 20 years of experience blinded to the identity of the imaging agent used and the strain of the mice (n=3 per group).
Wound healing procedure. Seven-to ten-week-old C57BL/6J female mice (The Jackson Laboratories, ME) and mannose-receptor deficient mice were used in this study. A circular outline on the back of a mouse was made with a 4 mm biopsy punch (Kai Medical, Japan) under anesthesia using isoflurane. Then a full-thickness excisional wound was generated that extended through the subcutaneous tissue. A silicone splint was glued over the wound, anchored with 6-0 nylon sutures, and covered with a transparent occlusive dressing (OpSite). Xylazine/norepinephrine (100 μL) were intraperitoneally injected twice a day for two days and the mice were monitored daily.

[2] = in vitro relaxivity (r1), Bruker Minispect; assay type: physicochemical
Method: Relaxation time (T1) of Mann2-DTPA-Gd/MannGdFish at concentrations of 0.1, 0.2, 0.3, 0.5, 0.6, 0.75, and 1 mM in PBS was measured on the Bruker Minispect (Bruker Analytics, MA) at 0.47 T (20 MHz) at 40° C. The slope value of the linear function of 1/T1 (s) to their corresponding concentrations is defined as the relaxivity (n=3 for each concentration).

CD206+ TAMs = test: MR imaging of experimental glioma; assay type: in vivo, mouse; conditions: third week, 30 and 60 min post-injection
Method: Eight-to nine-week-old C57BL/6J female mice were used for MRI of wound healing and glioma (Jackson Laboratory, ME). The generation of wound healing and glioma is described in Examples 14 and 15, respectively. The mice with subcutaneous wounds were imaged on days 1, 4, and 7 longitudinally or on day 7. Mice with glioma were imaged on the third week. […] Regions of interest (ROIs) were drawn and the contrast-to-noise ratios (CNRs, CNRpre-contrast subtracted) were calculated by a radiologist with over 20 years of experience blinded to the identity of the imaging agent used and the strain of the mice (n=3 per group). […]
Eight- to nine-week-old C57BL/6J female mice were used in this experiment (Jackson laboratory, ME). […] The mice then were monitored daily for signs of discomfort or neurological symptoms.

CD206+ macrophages [3] = test: MR imaging in mouse model of cutaneous wound healing; assay type: in vivo; conditions: 45-75 min post-injection, wildtype mice
[4] = tested on: M1/M2 macrophages and HEK293 cells; test: ICP-MS of gadolinium on cells incubated with agent; assay type: cell-based
Method: M1 and M2 differentiated macrophages were incubated with 1 mM of Mann2-DTPA-Gd for 1 h at 4° C. After washing with PBS (×3), cells were collected, digested with nitric acid (70%, 200 μL) overnight and subjected to ICP-MS to detect the amount of Gd.
M1 and M2 polarized differentiation. Raw 264.7 cells (Passage 8 from the cell core of center for Systems Biology at Massachusetts General Hospital, Boston) in 10 mL petri dishes were cultured with Dulbecco's modified eagle medium with high glucose (DMEM, Thermo Fisher Scientific, NY, USA) containing 10% of fetal bovine serum (FBS, Sigma-Aldrich, MO, USA) and 0.5% streptomycin/penicillin (Cellgro) until reaching 80% of confluency. Then differentiating media containing IFN-gamma (100 ng/ml the above medium) for M1 polarization and IL-4 (100 ng/mL) for M2 polarization were added to the dishes, respectively. After 24 h, the M1 and M2 polarized macrophages were ready for the following experiments.

| relaxivity (r1) [2] [mmol⁻¹ s⁻¹] | relaxivity (r1) ([2]; in PBS, 0.47 T, 40° C.) [mM⁻¹ s⁻¹] | Compound | IC50 (CD206) [mM] | CNR on day 7 compared to day 4 (CD206+ macrophages [1]; 45 min post-injection, wildtype mouse) | CNR on day 7 versus days 1 and 4 (CD206+ macrophages [1]; 60 min post-injection, longitudinal imaging) | signal intensity / CNR time course (CD206+ macrophages [1]; mannose receptor-knockout mice, day 7, 0.3 mmol/kg) | contrast-to-noise ratio (CNR) time course (CD206+ macrophages [1]; wildtype mice, day 7 after wound induction) | contrast enhancement of glioma (CD206+ TAMs) | CNR on day 7 compared to day 4 (CD206+ macrophages [3]) | amount of gadolinium on M2 macrophages versus M1 macrophages and HEK293 cells [4] |
| --- | --- | --- | --- | --- | --- | --- | --- | --- | --- | --- |
| – | – | O=C[C@@H](O)[C@@H](O)[C@H](O)[C@H](O)CO [D-mannose] | 5.5 | – | – | – | – | – | – | – |
| 3.6 | 3.6 | O=C([O-])CN(CCN(CC(=O)[O-])CC(=O)NC1C(O)OC(CO)C(O)C1O)CCN(CC(=O)[O-])CC(=O)NC1C(O)OC(CO)C(O)C1O.[Gd+3] (stereo not shown) [Mann2-DTPA-Gd] | – | about two-fold | much higher compared to that on days 1 and 4 | decreased significantly after 15 min post-injection compared to that in wildtype mice; also recorded: decreased over time after initially peaking at 15 min post-injection | increasing over time until 45 min post-injection prior to slowly decreasing; also recorded: slow decrease of CNR | Substantial contrast enhancement | 2- to 3 fold | much higher than that on M1 macrophages and HEK293 cells; also recorded: markedly higher than that in M1 macrophages and HEK293 cells |
